From US6787315B2, “Methods for identifying ligand binding sites in a biomolecule” (priority 2001, dated 2004)

Columns and labels:
Parameters in all cases: species or system E. coli
[1] = test system: modified 16S RNA (5IU1495; 5-iodouridine at position U1495, PEG-6 chain at 5′-hydroxyl); assay: ESI-FT-ICR MS ligand binding to 27-mer 16S RNA modified at U1495; conditions: Example 3: ribostamycin 2.5 μM
Method: (§1) The following examples illustrate preferred embodiments of the present invention using mass spectrometry. Experiments were performed using a 7.0 Tesla Fourier transform ion cyclotron resonance (FT-ICR) mass spectrometer with an electrospray ionization source operating in the negative mode. A −3000 V difference was employed between the spray tip and the inlet capillary to generate the electrospray. Samples were introduced at a flow rate of 1.5 uL/min using a Harvard syringe pump and a 50 uL glass syringe. The desolvation of the electrospray droplets was aided by a flow of countercurrent gas at 1 L/min. Ions were accumulated for 1.0 sec in an intermediate hexapole ion storage region at 1.0×10^−5 mbar. Following transfer to the FT-ICR analysis cell, the image current was measured over a mass range of 500-4000 m/z. Typically, a total of 32 transients containing 512 kbytes were summed prior to Fourier transformation. […]
An aqueous solution containing 50 mM ammonium acetate buffer (pH 7.0), 33% isopropyl alcohol, ribostamycin (2.5 μM), 16S RNA (2.5 μM) and a modified 16S RNA (2.5 μM) was prepared. […] The peaks were integrated and ion abundances determined. Fractions of 16S+ribost and 5IU1495+ribost complexes were determined to be 67.6% and 29.9±1% for the free 16S RNA and 5IU1495 RNA, respectively.

[2] = test system: modified 16S RNA (5′-PS-A1492; 3′-phosphorothioate at A1492, C12O6 PEG mass tag); assay: ESI-FT-ICR MS ligand binding to 27-mer 16S RNA modified at A1492
Method: (§2) The following examples illustrate preferred embodiments of the present invention using mass spectrometry. Experiments were performed using a 7.0 Tesla Fourier transform ion cyclotron resonance (FT-ICR) mass spectrometer with an electrospray ionization source operating in the negative mode. A −3000 V difference was employed between the spray tip and the inlet capillary to generate the electrospray. Samples were introduced at a flow rate of 1.5 uL/min using a Harvard syringe pump and a 50 uL glass syringe. The desolvation of the electrospray droplets was aided by a flow of countercurrent gas at 1 L/min. Ions were accumulated for 1.0 sec in an intermediate hexapole ion storage region at 1.0×10^−5 mbar. Following transfer to the FT-ICR analysis cell, the image current was measured over a mass range of 500-4000 m/z. Typically, a total of 32 transients containing 512 kbytes were summed prior to Fourier transformation. The m/z values were calibrated on the signal from the [M-5H^+]^5− charge state of the free RNA at 1726.509.
An aqueous solution containing 100 mM ammonium acetate buffer (pH 7.0), 33% isopropyl alcohol, gentamicin (1 μM), 16S RNA (5 μM) and a modified 16S RNA (5.5 μM) was prepared. […] The peaks from the complexes formed from the lowest mass form of gentamicin were integrated and ion abundances determined. Fractions of 16S+genta and 5′-PS-A1492+genta complexes were determined to be 0.121 and 0.118±0.01% for the free 16S RNA and 5′-PS-A1492 RNA, respectively.
An aqueous solution containing 100 mM ammonium acetate buffer (pH 7.0), 33% isopropyl alcohol, ribostamycin (1 μM), 16S RNA (5 μM) and a modified 16S RNA (5.5 μM) was prepared. […] The peaks from the complexes formed between ribostamycin and the RNA were integrated and ion abundances determined. Fractions of 16S+ribost and 5′-PS-A1492+ribost complexes were determined to be 0.101 and 0.082±0.005% for the free 16S RNA and 5′-PS-A1492 RNA, respectively.

[3] = test system: modified 16S RNA (5IUtetra; 5-iodouridine at position 13 in the UUCG tetraloop); assay: ESI-FT-ICR MS ligand binding to 27-mer 16S RNA modified at the tetraloop
Method: as §1
(§3) An aqueous solution containing 100 mM ammonium acetate buffer (pH 7.0), 33% isopropyl alcohol, gentamicin (2 μM, present in three forms), 16S RNA (2.5 μM) and a modified 16S RNA (2.5 μM) was prepared. […] The peaks were integrated and ion abundances determined. Fractions of 16S+genta and 5IUtetra+genta complexes were determined to be 70.4% and 68.2±1% for the free 16S RNA and 5IUtetraRNA, respectively.

[4] = test system: modified 16S RNA (5IU1406; 5-iodouridine at position U1406); assay: ESI-FT-ICR MS ligand binding to 27-mer 16S RNA modified at U1406; conditions: Example 2: gentamicin 2 μM
Method: as §2
as §3, with “μM),” for “μM, present in three forms),”, “5IU1406+genta” for “5IUtetra+genta”, “66.8%” for “70.4%”, “28.1±1%” for “68.2±1%”, “5IU1406 RNA,” for “5IUtetraRNA,”

Compound	Amount of 5IU1495+ribost as % of the amount of 16S+ribost [1] [%]	Fraction of 5IU1495+ribost complex ([1]; 16S RNA 2.5 μM with 5IU1495 RNA 2.5 μM, 50 mM ammonium acetate pH 7.0, 33% isopropyl alcohol) [%]	Amount of 5′-PS-A1492+ribost as % of the amount of 16S+ribost ([2]; Example 7: ribostamycin 1 μM) [%]	Effect of 5-iodouridine residue in the tetraloop on the abundance of the gentamicin-RNA complex ([3]; Example 1: 5IUtetra versus 16S RNA)	Fraction of 5IUtetra+genta complex ([3]; Example 1: gentamicin 2 μM (three forms), 16S RNA 2.5 μM with 5IUtetra RNA 2.5 μM, 100 mM ammonium acetate pH 7.0, 33% isopropyl alcohol) [%]	Amount of 5IU1406+genta as % of the amount of 16S+genta [4] [%]	Fraction of 5IU1406+genta complex ([4]; 16S RNA 2.5 μM with 5IU1406 RNA 2.5 μM, 100 mM ammonium acetate pH 7.0, 33% isopropyl alcohol) [%]	Amount of 5′-PS-A1492+genta as % of the amount of 16S+genta ([2]; Example 6: gentamicin 1 μM) [%]	Fraction of 5′-PS-A1492+genta complex ([2]; Example 6: gentamicin 1 μM (lowest mass form integrated), 16S RNA 5 μM with 5′-PS-A1492 RNA 5.5 μM, 100 mM ammonium acetate pH 7.0, 33% isopropyl alcohol)
NC[C@H]1O[C@H](O[C@H]2[C@H](O[C@@H]3O[C@H](CO)[C@@H](O)[C@H]3O)[C@@H](O)[C@H](N)C[C@@H]2N)[C@H](N)[C@@H](O)[C@@H]1O [ribostamycin]	44	29.9±1	80						
gentamicin				no effect	68.2±1	42	28.1±1	97	0.118±0.01 fraction (0–1)
